The text below walks through data of patent publication US20220409619A1, “INHIBITORS OF HUMAN IMMUNODEFICIENCY VIRUS REPLICATION” (VIIV HEALTHCARE UK (No. 5) LIMITED, priority 2019, published 2022).

The structures appear in SMILES notation.

Series [1] in a line: Compound cytotoxicity, XTT-based colorimetric assay. Particulars: human; uninfected MT2 cells, day 4, XTT-based colorimetric assay. Format: cell-based. As to the method: Compound cytotoxicity and the corresponding CC50 values were determined using the same protocol as described in the antiviral assay except that uninfected cells were used. Cytotoxicity was assessed on day 4 in uninfected MT2 cells by using a XTT (2,3-bis[2-Methoxy-4-nitro-5-sulfophenyl]-2H-tetrazolium-5-carboxyanilide inner salt)-based colorimetric assay (Sigma-Aldrich, St Louis, Mo.).
(In general: Tetrazolium dyes change colour on reduction, which living cells bring about.)

In series [2] the test system is recombinant NL4-3 virus (nef section replaced with Renilla luciferase gene) in MT-2 cells. As to the kind of experiment: HIV cell culture assay (antiviral activity, luciferase readout). Format: cell-based. Particulars: Renilla, NL43. The procedure:
HIV cell culture assay—MT-2 cells, 293T cells and the proviral DNA clone of NL4-3 virus were obtained from the NIH AIDS Research and Reference Reagent Program. MT-2 cells were propagated in RPMI 1640 media supplemented with 10% heat inactivated fetal bovine serum (FBS), 100 μg/ml penicillin G and up to 100 units/mL streptomycin. The 293T cells were propagated in DMEM media supplemented with 10% heat inactivated FBS, 100 μg/mL penicillin G and 100 μg/mL streptomycin. A recombinant NL4-3 proviral clone, in which a section of the nef gene was replaced with the Renilla luciferase gene, was used to make the reference virus used in these studies. The recombinant virus was prepared through transfection of the recombinant NL4-3 proviral clone into 293T cells using Transit-293 Transfection Reagent from Mirus Bio LLC (Madison, Wis.). Supernatent was harvested after 2-3 days and the amount of virus present was titered in MT-2 cells using luciferase enzyme activity as a marker by measuring luciferase enzyme activity. Luciferase was quantitated using the EnduRen Live Cell Substrate from Promega (Madison, Wis.). Antiviral activities of compounds toward the recombinant virus were quantified by measuring luciferase activity in MT-2 cells infected for 4-5 days with the recombinant virus in the presence of serial dilutions of the compound.
The 50% effective concentration (EC50) was calculated by using the exponential form of the median effect equation where (Fa)=1/[1+(ED50/drug conc.)^m] (Johnson V A, Byington R T. Infectivity Assay. In Techniques in HIV Research. ed. Aldovini A, Walker B D. 71-76. New York: Stockton Press. 1990). Curve fitting and analysis were performed with ActivityBase XE Runner software version 9.1.0.4 using model 203 (ID Business Solutions, LTD, Guildford, UK).

Turning to `COC(C)(C)C#Cc1cc(=O)n(-c2ccc(Cl)c3c(NS(C)(=O)=O)nn(C)c23)c([C@H](Cc2cc(F)cc(F)c2)NC(=O)Cn2nc(C(F)F)c3c2C(F)(F)[C@@H]2C[C@H]32)n1` (atropisomer, axis not shown; (P)) [Example 9, N-((S)-1-((1P)-1-(4-chloro-1-methyl-3-(methylsulfonamido)-1H-indazol-7-yl)-4-(3-methoxy-3-methylbut-1-yn-1-yl)-6-oxo-1,6-dihydropyrimidin-2-yl)-2-(3,5-difluorophenyl)ethyl)-2-((3bS,4aR)-3-(difluoromethyl)-5,5-difluoro-3b,4,4a,5-tetrahydro-1H-cyclopropa[3,4]cyclopenta[1,2-c]pyrazol-1-yl)acetamide], the CC50 (as a rule, the concentration at which the toxic effect on the cells reaches its halfway point) at 4 days in series [1] was greater than 100 nM. Also, the EC50 (as a rule, the concentration needed to bring the measured effect to its halfway point) in series [2] is 0.04 nM.

Consider `Cn1nc(NS(C)(=O)=O)c2c(Cl)ccc(-n3c([C@H](Cc4cc(F)cc(F)c4)NC(=O)Cn4nc(C(F)F)c5c4C(F)(F)[C@@H]4C[C@H]54)nc(-c4cccc(C(F)(F)F)n4)cc3=O)c21` (atropisomer, axis not shown; (P)) [Example 7, N-((S)-1-((1P)-1-(4-chloro-1-methyl-3-(methylsulfonamido)-1H-indazol-7-yl)-6-oxo-4-(6-(trifluoromethyl)pyridin-2-yl)-1,6-dihydropyrimidin-2-yl)-2-(3,5-difluorophenyl)ethyl)-2-((3bS,4aR)-3-(difluoromethyl)-5,5-difluoro-3b,4,4a,5-tetrahydro-1H-cyclopropa[3,4]cyclopenta[1,2-c]pyrazol-1-yl)acetamide], for which the CC50 at 4 days in series [1] is greater than 100 nM. For the same molecule, the EC50 in series [2] was determined as 0.53 nM.

In series [1], `COC(C)(C)C#Cc1cc(=O)n(-c2ccc(Cl)c3c(NS(=O)(=O)C4CC4)nn(CC(F)F)c23)c([C@H](Cc2cc(F)cc(F)c2)NC(=O)Cn2nc(C(F)F)c3c2C(F)(F)[C@@H]2C[C@H]32)n1` (atropisomer, axis not shown; (P)) [Example 41, N-((S)-1-((1P)-1-(4-chloro-3-(cyclopropanesulfonamido)-1-(2,2-difluoroethyl)-1H-indazol-7-yl)-4-(3-methoxy-3-methylbut-1-yn-1-yl)-6-oxo-1,6-dihydropyrimidin-2-yl)-2-(3,5-difluorophenyl)ethyl)-2-((3bS,4aR)-3-(difluoromethyl)-5,5-difluoro-3b,4,4a,5-tetrahydro-1H-cyclopropa[3,4]cyclopenta[1,2-c]pyrazol-1-yl)acetamide] had a half-maximal cytotoxic concentration (CC50) at 4 days greater than 100 nM. Besides, the EC50 in series [2] was determined as 0.064 nM.

`O=C(Cn1nc(C(F)F)c2c1C(F)(F)[C@@H]1C[C@H]21)N[C@@H](Cc1cc(F)cc(F)c1)c1nc(-c2ccc(Cl)cn2)cc(=O)n1-c1ccc(Cl)c2c(NS(=O)(=O)C3CC3)nn(CC(F)F)c12` (atropisomer, axis not shown; (P)) [Example 35, N-((S)-1-((1P)-1-(4-chloro-3-(cyclopropanesulfonamido)-1-(2,2-difluoroethyl)-1H-indazol-7-yl)-4-(5-chloropyridin-2-yl)-6-oxo-1,6-dihydropyrimidin-2-yl)-2-(3,5-difluorophenyl)ethyl)-2-((3bS,4aR)-3-(difluoromethyl)-5,5-difluoro-3b,4,4a,5-tetrahydro-1H-cyclopropa[3,4]cyclopenta[1,2-c]pyrazol-1-yl)acetamide]: the CC50 at 4 days in series [1] is greater than 100 nM. Moreover, the EC50 in series [2] was found to be 0.72 nM.

In series [1], `COc1ccnc(-c2cc(=O)n(-c3ccc(Cl)c4c(NS(=O)(=O)C5CC5)nn(CC(F)F)c34)c([C@H](Cc3cc(F)cc(F)c3)NC(=O)Cn3nc(C(F)F)c4c3C(F)(F)[C@@H]3C[C@H]43)n2)n1` (atropisomer, axis not shown; (aR)) [Example 33, N-((S)-1-((1′P)-1′-(4-chloro-3-(cyclopropanesulfonamido)-1-(2,2-difluoroethyl)-1H-indazol-7-yl)-4-methoxy-6′-oxo-1′,6′-dihydro-[2,4′-bipyrimidin]-2′-yl)-2-(3,5-difluorophenyl)ethyl)-2-((3bS,4aR)-3-(difluoromethyl)-5,5-difluoro-3b,4,4a,5-tetrahydro-1H-cyclopropa[3,4]cyclopenta[1,2-c]pyrazol-1-yl)acetamide] displayed a CC50 at 4 days greater than 100 nM. Moreover, the concentration giving a half-maximal response (EC50) in series [2] was found to be 0.13 nM.

`O=C(Cn1nc(C(F)(F)F)c2c1C(F)(F)[C@@H]1C[C@H]21)N[C@@H](Cc1cc(F)cc(F)c1)c1nc(-c2nccc(C(F)F)n2)cc(=O)n1-c1ccc(Cl)c2c(NS(=O)(=O)C3CC3)nn(CC(F)F)c12` (atropisomer, axis not shown; (aR)) [Example 32, N-((S)-1-((1′P)-1′-(4-chloro-3-(cyclopropanesulfonamido)-1-(2,2-difluoroethyl)-1H-indazol-7-yl)-4-(difluoromethyl)-6′-oxo-1′,6′-dihydro-[2,4′-bipyrimidin]-2′-yl)-2-(3,5-difluorophenyl)ethyl)-2-((3bS,4aR)-5,5-difluoro-3-(trifluoromethyl)-3b,4,4a,5-tetrahydro-1H-cyclopropa[3,4]cyclopenta[1,2-c]pyrazol-1-yl)acetamide] displayed a CC50 at 4 days in series [1] greater than 100 nM. In series [2], the EC50 is 0.3 nM.

In the case of `COc1cnc(-c2cc(=O)n(-c3ccc(Cl)c4c(NS(=O)(=O)C5CC5)nn(CC(F)F)c34)c([C@H](Cc3cc(F)cc(F)c3)NC(=O)Cn3nc(C(F)F)c4c3C(F)(F)[C@@H]3C[C@H]43)n2)cn1` (atropisomer, axis not shown; (P)) [Example 31, N-((S)-1-((1P)-1-(4-chloro-3-(cyclopropanesulfonamido)-1-(2,2-difluoroethyl)-1H-indazol-7-yl)-4-(5-methoxypyrazin-2-yl)-6-oxo-1,6-dihydropyrimidin-2-yl)-2-(3,5-difluorophenyl)ethyl)-2-((3bS,4aR)-3-(difluoromethyl)-5,5-difluoro-3b,4,4a,5-tetrahydro-1H-cyclopropa[3,4]cyclopenta[1,2-c]pyrazol-1-yl)acetamide], the CC50 at 4 days in series [1] was greater than 100 nM. Further, the EC50 in series [2] came to 0.53 nM.

Consider `O=C(Cn1nc(C(F)(F)F)c2c1C(F)(F)[C@@H]1C[C@H]21)N[C@@H](Cc1cc(F)cc(F)c1)c1nc(-c2nccc(C(F)(F)F)n2)cc(=O)n1-c1ccc(Cl)c2c(NS(=O)(=O)C3CC3)nn(CC(F)F)c12` [Example 26, N-((S)-1-((1′P)-1′-(4-chloro-3-(cyclopropanesulfonamido)-1-(2,2-difluoroethyl)-1H-indazol-7-yl)-6′-oxo-4-(trifluoromethyl)-1′,6′-dihydro-[2,4′-bipyrimidin]-2′-yl)-2-(3,5-difluorophenyl)ethyl)-2-((3bS,4aR)-5,5-difluoro-3-(trifluoromethyl)-3b,4,4a,5-tetrahydro-1H-cyclopropa[3,4]cyclopenta[1,2-c]pyrazol-1-yl)acetamide], for which, in series [1], the CC50 at 4 days is greater than 100 nM. The EC50 in series [2] came out at 0.11 nM.

For the molecule `Cn1nc(NS(C)(=O)=O)c2c(Cl)ccc(-n3c([C@H](Cc4cc(F)cc(F)c4)NC(=O)Cn4nc(C(F)F)c5c4C(F)(F)[C@@H]4C[C@H]54)nc(-c4ccn(CC(C)(F)F)n4)cc3=O)c21` (atropisomer, axis not shown; (P)) [Example 8, N-((S)-1-((1P)-1-(4-chloro-1-methyl-3-(methylsulfonamido)-1H-indazol-7-yl)-4-(1-(2,2-difluoropropyl)-1H-pyrazol-3-yl)-6-oxo-1,6-dihydropyrimidin-2-yl)-2-(3,5-difluorophenyl)ethyl)-2-((3bS,4aR)-3-(difluoromethyl)-5,5-difluoro-3b,4,4a,5-tetrahydro-1H-cyclopropa[3,4]cyclopenta[1,2-c]pyrazol-1-yl)acetamide], the 50% cytotoxic concentration (CC50) at 4 days in series [1] was greater than 100 nM. For the same molecule, the EC50 in series [2] came to 0.28 nM.
